From ChEMBL document CHEMBL4396905, “Design, synthesis and in vitro evaluation of 6-amide-2-aryl benzoxazole/benzimidazole derivatives against tumor cells by inhibiting VEGFR-2 kinase” (Eur J Med Chem, 2019)
Calls of active or inactive are those of the source. The calls are words filed in the database; no cut-off is given here.

Experiments:
[1] = molecular target: T1, Vascular endothelial growth factor receptor 2 (Homo sapiens, UniProt P35968); assay: Inhibition of VEGFR2 (unknown origin) using Poly (Glu, Tyr) 4:1 as substrate preincubated with substrate followed by enzyme challenge for 1 hr by ELISA
T1 sequence (P35968 whole entry): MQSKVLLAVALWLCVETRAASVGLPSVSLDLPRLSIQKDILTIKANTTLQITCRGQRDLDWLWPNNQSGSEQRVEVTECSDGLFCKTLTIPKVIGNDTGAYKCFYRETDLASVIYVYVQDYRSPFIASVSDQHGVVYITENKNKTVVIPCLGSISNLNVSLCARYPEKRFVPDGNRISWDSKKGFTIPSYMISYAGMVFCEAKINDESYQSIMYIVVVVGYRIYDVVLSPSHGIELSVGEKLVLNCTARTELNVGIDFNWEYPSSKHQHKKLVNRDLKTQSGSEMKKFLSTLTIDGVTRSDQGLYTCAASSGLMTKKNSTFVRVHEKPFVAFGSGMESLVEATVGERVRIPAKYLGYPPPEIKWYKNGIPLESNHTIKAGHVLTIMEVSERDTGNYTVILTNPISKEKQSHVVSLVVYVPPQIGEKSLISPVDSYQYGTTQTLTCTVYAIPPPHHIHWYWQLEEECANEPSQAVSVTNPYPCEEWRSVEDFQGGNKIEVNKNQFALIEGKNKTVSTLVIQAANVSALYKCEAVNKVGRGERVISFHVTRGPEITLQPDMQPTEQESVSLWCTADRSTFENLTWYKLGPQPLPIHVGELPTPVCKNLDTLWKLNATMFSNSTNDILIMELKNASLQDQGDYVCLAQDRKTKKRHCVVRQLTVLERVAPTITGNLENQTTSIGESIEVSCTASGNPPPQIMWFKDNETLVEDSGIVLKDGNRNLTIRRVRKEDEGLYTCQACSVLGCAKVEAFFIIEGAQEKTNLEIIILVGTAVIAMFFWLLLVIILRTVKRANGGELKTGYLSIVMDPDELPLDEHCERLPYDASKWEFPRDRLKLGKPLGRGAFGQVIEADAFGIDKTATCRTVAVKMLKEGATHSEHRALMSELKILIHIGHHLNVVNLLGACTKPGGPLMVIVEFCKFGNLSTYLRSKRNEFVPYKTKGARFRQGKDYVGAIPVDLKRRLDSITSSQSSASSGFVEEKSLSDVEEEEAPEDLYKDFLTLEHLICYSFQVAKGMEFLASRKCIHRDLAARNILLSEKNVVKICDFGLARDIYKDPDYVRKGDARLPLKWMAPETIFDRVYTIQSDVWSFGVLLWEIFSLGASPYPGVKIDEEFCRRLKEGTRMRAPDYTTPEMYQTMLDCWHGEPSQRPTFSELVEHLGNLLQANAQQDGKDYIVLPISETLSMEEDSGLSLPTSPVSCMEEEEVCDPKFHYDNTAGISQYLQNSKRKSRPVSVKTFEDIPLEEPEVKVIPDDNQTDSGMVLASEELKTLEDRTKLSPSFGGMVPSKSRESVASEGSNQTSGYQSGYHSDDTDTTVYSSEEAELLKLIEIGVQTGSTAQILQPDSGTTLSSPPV

[2] = molecular target: Epidermal growth factor receptor (Homo sapiens) (UniProt P00533); assay: Inhibition of EGFR (unknown origin) using Poly (Glu, Tyr) 4:1 as substrate at 1 uM preincubated with substrate followed by enzyme challenge for 1 hr by ELISA relative to control
Sequence of Epidermal growth factor receptor (Homo sapiens) (P00533 whole entry): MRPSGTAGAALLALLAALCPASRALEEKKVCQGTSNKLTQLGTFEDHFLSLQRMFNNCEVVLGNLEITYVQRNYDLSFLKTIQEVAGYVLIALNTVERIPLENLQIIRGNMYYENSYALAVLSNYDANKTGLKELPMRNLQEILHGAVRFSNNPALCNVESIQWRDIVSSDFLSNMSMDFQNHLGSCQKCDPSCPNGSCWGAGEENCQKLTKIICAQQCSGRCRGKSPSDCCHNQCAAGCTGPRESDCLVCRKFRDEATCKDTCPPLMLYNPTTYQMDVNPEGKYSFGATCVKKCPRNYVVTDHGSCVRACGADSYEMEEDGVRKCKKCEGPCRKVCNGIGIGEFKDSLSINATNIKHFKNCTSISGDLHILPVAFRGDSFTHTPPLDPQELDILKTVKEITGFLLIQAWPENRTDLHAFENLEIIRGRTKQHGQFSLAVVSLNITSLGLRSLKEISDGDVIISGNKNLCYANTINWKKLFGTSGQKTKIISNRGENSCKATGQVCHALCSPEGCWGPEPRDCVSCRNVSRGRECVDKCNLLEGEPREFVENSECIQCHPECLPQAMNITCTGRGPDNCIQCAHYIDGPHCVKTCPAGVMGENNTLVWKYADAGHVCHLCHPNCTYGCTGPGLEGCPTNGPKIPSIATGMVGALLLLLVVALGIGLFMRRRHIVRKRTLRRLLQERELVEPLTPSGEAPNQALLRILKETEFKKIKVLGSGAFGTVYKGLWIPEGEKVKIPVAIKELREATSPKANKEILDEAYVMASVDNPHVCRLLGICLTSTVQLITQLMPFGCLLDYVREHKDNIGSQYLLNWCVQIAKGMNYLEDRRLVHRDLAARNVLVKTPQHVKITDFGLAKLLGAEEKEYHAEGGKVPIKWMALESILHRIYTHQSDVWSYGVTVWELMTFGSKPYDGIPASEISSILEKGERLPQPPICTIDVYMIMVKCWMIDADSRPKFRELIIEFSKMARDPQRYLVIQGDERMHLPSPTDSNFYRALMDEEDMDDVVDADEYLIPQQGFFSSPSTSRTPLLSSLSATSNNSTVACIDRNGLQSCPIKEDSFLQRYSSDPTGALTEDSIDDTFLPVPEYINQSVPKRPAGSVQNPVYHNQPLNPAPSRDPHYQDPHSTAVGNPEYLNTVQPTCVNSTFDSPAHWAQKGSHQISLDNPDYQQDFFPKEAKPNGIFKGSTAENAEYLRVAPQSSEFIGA

HUVEC [3] = assay: Antiproliferative activity against human HUVEC cells expressing VEGFR2 assessed as reduction in cell growth incubated for 48 hrs by MTT assay; format: functional, cell-based
HepG2 [4] = assay: Antiproliferative activity against human HepG2 cells expressing VEGFR2 assessed as reduction in cell growth incubated for 48 hrs by MTT assay; format: functional, cell-based; conditions: HepG2, 48 h
A549 = assay: Antiproliferative activity against human A549 cells expressing EGFR assessed as reduction in cell growth incubated for 48 hrs by MTT assay; format: functional, cell-based; conditions: A549, 48 h
MDA-MB-231 = assay: Antiproliferative activity against human MDA-MB-231 cells expressing EGFR assessed as reduction in cell growth incubated for 48 hrs by MTT assay; format: functional, cell-based; conditions: MDA-MB-231, 48 h
[5] = molecular target: Platelet-derived growth factor receptor alpha (Homo sapiens) (UniProt P16234); assay: Inhibition of PDGFRalpha (unknown origin) at 1 uM
Sequence of Platelet-derived growth factor receptor alpha (Homo sapiens) (P16234 whole entry): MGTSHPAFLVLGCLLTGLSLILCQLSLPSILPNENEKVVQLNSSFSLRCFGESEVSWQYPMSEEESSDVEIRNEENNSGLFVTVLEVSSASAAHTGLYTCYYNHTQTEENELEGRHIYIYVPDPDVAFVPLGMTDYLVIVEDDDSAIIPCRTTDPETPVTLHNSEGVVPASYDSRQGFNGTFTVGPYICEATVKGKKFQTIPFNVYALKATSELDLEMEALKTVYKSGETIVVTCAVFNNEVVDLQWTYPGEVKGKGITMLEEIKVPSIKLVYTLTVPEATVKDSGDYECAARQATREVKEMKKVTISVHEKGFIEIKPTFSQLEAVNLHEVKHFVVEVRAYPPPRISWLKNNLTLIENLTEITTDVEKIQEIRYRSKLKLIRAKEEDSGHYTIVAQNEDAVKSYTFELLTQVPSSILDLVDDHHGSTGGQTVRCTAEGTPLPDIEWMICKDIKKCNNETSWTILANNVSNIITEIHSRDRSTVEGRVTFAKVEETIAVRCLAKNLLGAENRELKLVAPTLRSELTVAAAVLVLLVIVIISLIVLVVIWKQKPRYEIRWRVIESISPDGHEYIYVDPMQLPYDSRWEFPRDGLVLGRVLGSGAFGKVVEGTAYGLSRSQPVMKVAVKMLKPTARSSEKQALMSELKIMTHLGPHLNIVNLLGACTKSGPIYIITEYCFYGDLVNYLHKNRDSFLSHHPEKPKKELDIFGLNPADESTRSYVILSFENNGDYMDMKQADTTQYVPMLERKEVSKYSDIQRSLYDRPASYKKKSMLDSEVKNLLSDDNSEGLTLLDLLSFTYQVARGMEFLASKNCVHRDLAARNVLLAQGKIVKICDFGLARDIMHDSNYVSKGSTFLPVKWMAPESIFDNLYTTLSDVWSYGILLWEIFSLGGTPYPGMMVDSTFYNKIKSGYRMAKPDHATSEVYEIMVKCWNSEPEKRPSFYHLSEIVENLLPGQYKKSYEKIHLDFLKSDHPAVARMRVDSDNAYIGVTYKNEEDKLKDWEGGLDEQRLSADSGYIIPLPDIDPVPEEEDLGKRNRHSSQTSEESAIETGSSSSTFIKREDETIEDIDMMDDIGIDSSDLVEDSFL

[6] = molecular target: Platelet-derived growth factor receptor beta (Homo sapiens) (UniProt P09619); assay: Inhibition of PDGFRbeta (unknown origin) at 1 uM
[7] = molecular target: Vascular endothelial growth factor receptor 1 (Homo sapiens) (UniProt P17948); assay: Inhibition of FLT1 (unknown origin) at 1 uM
[8] = molecular target: Vascular endothelial growth factor receptor 3 (Homo sapiens) (UniProt P35916); assay: Inhibition of FLT4 (unknown origin) 1 uM
[9] = molecular target: Hepatocyte growth factor receptor (Homo sapiens) (UniProt P08581); assay: Inhibition of MET (unknown origin) at 1 uM
Sequence of Hepatocyte growth factor receptor (Homo sapiens) (P08581 whole entry): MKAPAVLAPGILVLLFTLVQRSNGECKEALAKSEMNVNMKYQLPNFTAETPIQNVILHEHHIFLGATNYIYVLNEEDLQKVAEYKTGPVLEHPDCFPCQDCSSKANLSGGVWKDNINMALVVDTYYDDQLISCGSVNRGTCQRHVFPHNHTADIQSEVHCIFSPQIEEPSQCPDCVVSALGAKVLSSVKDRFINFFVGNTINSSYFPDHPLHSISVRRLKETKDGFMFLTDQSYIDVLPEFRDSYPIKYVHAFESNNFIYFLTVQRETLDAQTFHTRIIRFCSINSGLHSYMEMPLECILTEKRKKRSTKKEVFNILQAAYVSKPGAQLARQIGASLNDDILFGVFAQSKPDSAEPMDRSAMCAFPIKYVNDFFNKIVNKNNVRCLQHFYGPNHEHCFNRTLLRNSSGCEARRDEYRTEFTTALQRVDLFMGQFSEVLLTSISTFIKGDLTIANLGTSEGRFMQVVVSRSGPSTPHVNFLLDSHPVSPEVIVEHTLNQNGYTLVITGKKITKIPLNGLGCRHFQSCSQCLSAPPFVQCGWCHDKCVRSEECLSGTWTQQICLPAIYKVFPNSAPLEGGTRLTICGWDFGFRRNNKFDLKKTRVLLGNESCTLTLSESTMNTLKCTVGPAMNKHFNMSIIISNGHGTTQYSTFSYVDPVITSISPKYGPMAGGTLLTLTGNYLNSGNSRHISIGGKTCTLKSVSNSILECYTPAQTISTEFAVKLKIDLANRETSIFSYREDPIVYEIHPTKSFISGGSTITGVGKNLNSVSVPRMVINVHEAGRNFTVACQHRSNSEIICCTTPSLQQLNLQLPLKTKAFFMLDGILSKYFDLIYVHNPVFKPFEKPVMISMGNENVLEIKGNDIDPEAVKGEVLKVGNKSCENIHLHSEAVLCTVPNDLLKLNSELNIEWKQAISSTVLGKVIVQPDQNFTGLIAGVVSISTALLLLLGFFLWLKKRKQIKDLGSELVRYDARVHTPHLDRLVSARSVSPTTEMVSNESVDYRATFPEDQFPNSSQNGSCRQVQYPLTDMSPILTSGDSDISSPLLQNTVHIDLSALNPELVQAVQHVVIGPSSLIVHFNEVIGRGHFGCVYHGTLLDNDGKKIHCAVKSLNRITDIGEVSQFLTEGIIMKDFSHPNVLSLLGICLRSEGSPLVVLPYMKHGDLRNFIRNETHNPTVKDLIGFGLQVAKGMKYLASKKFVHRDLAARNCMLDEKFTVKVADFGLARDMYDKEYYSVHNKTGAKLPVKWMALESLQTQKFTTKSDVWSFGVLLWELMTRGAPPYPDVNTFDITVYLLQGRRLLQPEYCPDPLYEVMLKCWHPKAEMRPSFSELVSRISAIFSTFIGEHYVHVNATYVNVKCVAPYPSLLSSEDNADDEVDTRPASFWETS

[10] = Cytotoxicity against human LO2 cells assessed as reduction in cell viability at 10 uM relative to control; format: cell-based, L02; conditions: read-out: INH
Chorioallantoic membrane [11] = assay: Antiangiogenic activity in chicken chorioallantoic membrane assessed as reduction in number of blood vessels at 0.1 nM per egg measured after 48 hrs by CAM assay relative to control; format: functional, cell membranes; conditions: Gallus gallus
Chorioallantoic membrane [12] = assay: Antiangiogenic activity in chicken chorioallantoic membrane assessed as reduction in number of blood vessels at 1 nM per egg measured after 48 hrs by CAM assay relative to control; format: functional, cell membranes; conditions: Gallus gallus
Chorioallantoic membrane [13] = assay: Antiangiogenic activity in chicken chorioallantoic membrane assessed as reduction in number of blood vessels at 10 nM per egg measured after 48 hrs by CAM assay relative to control; format: functional, cell membranes; conditions: Gallus gallus
Chorioallantoic membrane [14] = assay: Antiangiogenic activity in chicken chorioallantoic membrane assessed as reduction in number of blood vessels measured after 48 hrs by CAM assay; format: functional, cell membranes; conditions: Gallus gallus
HepG2 [15] = assay: Induction of apoptosis in human HepG2 cells assessed as apoptotic cells at 1 nM incubated for 24 hrs by dUTP-FITC/PI staining based flow cytometry (reference value: 3.3%); format: functional
HepG2 [16] = assay: Induction of apoptosis in human HepG2 cells assessed as apoptotic cells at 10 nM incubated for 24 hrs by dUTP-FITC/PI staining based flow cytometry (reference value: 3.3%); format: functional
HepG2 [17] = assay: Induction of apoptosis in human HepG2 cells assessed as necrotic cells at 1 nM incubated for 24 hrs by dUTP-FITC/PI staining based flow cytometry (reference value: 10.2%); format: functional
HepG2 [18] = assay: Induction of apoptosis in human HepG2 cells assessed as necrotic cells at 10 nM incubated for 24 hrs by dUTP-FITC/PI staining based flow cytometry (reference value: 10.2%); format: functional
HUVEC [19] = assay: Induction of apoptosis in human HUVEC cells assessed as apoptotic cells at 1 nM incubated for 24 hrs by dUTP-FITC/PI staining based flow cytometry (reference value: 4.9%); format: functional
HUVEC [20] = assay: Induction of apoptosis in human HUVEC cells assessed as apoptotic cells at 10 nM incubated for 24 hrs by dUTP-FITC/PI staining based flow cytometry (reference value: 4.9%); format: functional
HUVEC [21] = assay: Induction of apoptosis in human HUVEC cells assessed as necrotic cells at 1 nM incubated for 24 hrs by dUTP-FITC/PI staining based flow cytometry (reference value: 6.9%); format: functional
HUVEC [22] = assay: Induction of apoptosis in human HUVEC cells assessed as necrotic cells at 10 nM incubated for 24 hrs by dUTP-FITC/PI staining based flow cytometry (reference value: 6.9%); format: functional
HepG2 [23] = assay: Cell cycle arrest in human HepG2 cells assessed as accumulation at G0/G1 phase at 1 nM incuabted for 24 hrs by PI staining based flow cytometry (reference value: 47.9%); format: functional
HepG2 [24] = assay: Cell cycle arrest in human HepG2 cells assessed as accumulation at G0/G1 phase at 10 nM incuabted for 24 hrs by PI staining based flow cytometry (reference value: 47.9%); format: functional
HepG2 [25] = assay: Cell cycle arrest in human HepG2 cells assessed as accumulation at S phase at 1 nM incuabted for 24 hrs by PI staining based flow cytometry (reference value: 9.8%); format: functional
HepG2 [26] = assay: Cell cycle arrest in human HepG2 cells assessed as accumulation at S phase at 10 nM incuabted for 24 hrs by PI staining based flow cytometry (reference value: 9.8%); format: functional
HepG2 [27] = assay: Cell cycle arrest in human HepG2 cells assessed as accumulation at G2/M phase at 1 nM incuabted for 24 hrs by PI staining based flow cytometry (reference value: 42.3%); format: functional
HepG2 [28] = assay: Cell cycle arrest in human HepG2 cells assessed as accumulation at G2/M phase at 10 nM incuabted for 24 hrs by PI staining based flow cytometry (reference value: 42.3%); format: functional
HUVEC [29] = assay: Cell cycle arrest in human HUVEC cells assessed as accumulation at G0/G1 phase at 1 nM incuabted for 24 hrs by PI staining based flow cytometry (reference value: 43.2%); format: functional
HUVEC [30] = assay: Cell cycle arrest in human HUVEC cells assessed as accumulation at G0/G1 phase at 10 nM incuabted for 24 hrs by PI staining based flow cytometry (reference value: 43.2%); format: functional
HUVEC [31] = assay: Cell cycle arrest in human HUVEC cells assessed as accumulation at S phase at 1 nM incuabted for 24 hrs by PI staining based flow cytometry (reference value: 10.4%); format: functional
HUVEC [32] = assay: Cell cycle arrest in human HUVEC cells assessed as accumulation at S phase at 10 nM incuabted for 24 hrs by PI staining based flow cytometry (reference value: 10.4%); format: functional
HUVEC [33] = assay: Cell cycle arrest in human HUVEC cells assessed as accumulation at G2/M phase at 1 nM incuabted for 24 hrs by PI staining based flow cytometry (reference value: 46.4%); format: functional
HUVEC [34] = assay: Cell cycle arrest in human HUVEC cells assessed as accumulation at G2/M phase at 10 nM incuabted for 24 hrs by PI staining based flow cytometry (reference value: 46.4%); format: functional
HepG2 [35] = assay: Cell cycle arrest in human HepG2 cells assessed as accumulation at G0/G1 phase incuabted for 24 hrs by PI staining based flow cytometry; format: functional
HUVEC [36] = assay: Cell cycle arrest in human HUVEC cells assessed as accumulation at G0/G1 phase incuabted for 24 hrs by PI staining based flow cytometry; format: functional
[37] = molecular target: T1, Vascular endothelial growth factor receptor 2; assay: Inhibition of VEGFR2 in human HUVEC cells assessed as reduction in phosphorylation of VEGFR2 at 2 to 4 uM incubated for 24 hrs by Western blot analysis; format: cell-based
[38] = molecular target: T1, Vascular endothelial growth factor receptor 2; conditions: at 1 µM
Description: Inhibition of VEGFR2 (unknown origin) using Poly (Glu, Tyr) 4:1 as substrate at 1 uM preincubated with substrate followed by enzyme challenge for 1 hr by ELISA relative to control

COc1ccc(CC(=O)Nc2ccc3[nH]c(-c4ccc(Cl)cc4)nc3c2)cc1
IC50 [1]: 51.4 nM | inhibition [2]: 58.3% | IC50 (HUVEC [3]): 1470 nM | IC50 (HepG2 [4]): 2570 nM | IC50 (A549): 73.8 µM | IC50 (MDA-MB-231): 57.3 µM | inhibition [5]: -3.5% | inhibition [6]: 2.7% | inhibition [7]: 26.1% | inhibition [8]: 18.5% | inhibition [9]: -3.6% | cytotoxicity at 10 µM [10]: 56.4% | inhibition (Chorioallantoic membrane [11]): 28% | inhibition (Chorioallantoic membrane [12]): 51% | inhibition (Chorioallantoic membrane [13]): 79% | inhibition (Chorioallantoic membrane [14]): Dose-dependent effect | Activity (HepG2 [15]): 13.7% | Activity (HepG2 [16]): 28.1% | Activity (HepG2 [17]): 7.3% | Activity (HepG2 [18]): 5.9% | Activity (HUVEC [19]): 18.9% | Activity (HUVEC [20]): 34.3% | Activity (HUVEC [21]): 6.9% | Activity (HUVEC [22]): 2.5% | Activity (HepG2 [23]): 55.7% | Activity (HepG2 [24]): 68% | Activity (HepG2 [25]): 8.1% | Activity (HepG2 [26]): 6.7% | Activity (HepG2 [27]): 36.2% | Activity (HepG2 [28]): 25.3% | Activity (HUVEC [29]): 59.3% | Activity (HUVEC [30]): 71.4% | Activity (HUVEC [31]): 8.9% | Activity (HUVEC [32]): 7.3% | Activity (HUVEC [33]): 31.8% | Activity (HUVEC [34]): 21.3% | Activity (HepG2 [35]): Dose-dependent effect | Activity (HUVEC [36]): Dose-dependent effect | inhibition [37]: Active | inhibition [38]: 103%
